Assay results from patent US4943580A, “Anti-histaminic benzimidazole, imidazopyridine and purine derivatives” (Janssen Pharmaceutica N.V., priority 1989, dated 1990).

Tested on: compound 48/80-induced lethality
Test: Protection of rats from compound 48/80-induced lethality
Assay type: in vivo, rat (male, inbred Wistar strain)
Settings: Rattus norvegicus; rats treated subcutaneously or orally 1 hour before compound 48/80 0.5 mg/kg intravenously; 50% of animals protected; survival after 4 hours; read-out: Compound 48/80 lethality test in rats-ED50
Description: Protection of rats from compound […] lethality
Compound 48/80, a mixture of oligomers obtained by condensation of 4-methoxy-N-methylbenzeneethanamine and formaldehyde has been described as a potent histamine releasing agent (Int. Arch. Allergy, 13, 336 (1958)). The protection from compound 48/80-induced lethal circulatory collapse appears to be a simple way of evaluating quantitatively the antihistaminic activity of test compounds. Male rats of an inbred Wistar strain, weighing 240-260 g were used in the experiment. After overnight starvation the rats were transferred to conditioned laboratories (temp.=[…], relative humidity=65±5%). The rats were treated subcutaneously or orally with a test compound or with the solvent (NaCl solution, 0.9%). One hour after treatment there was injected intravenously compound 48/80, freshly dissolved in water, at a dose of 0.5 mg/kg (0.2 ml/100 g of body weight). In control experiments, wherein 250 solvent-treated animals were injected with the standard dose of compound 48/80, not more than 2.8% of the animals survived after 4 hours. Survival after 4 hours is therefore considered to be a safe criterion of a protective effect of drug administration. Said ED50 -values are the values in mg/kg body weight at which the tested compounds protect 50% of the tested animals against compound 48/80-induced lethality.

| Compound | ED50 [mg/kg] |
| --- | --- |
| CCOCCn1c(NC2CCN(CCc3ccc(OC)cc3)CC2)nc2cccnc21 [Compound 45] | 0.02 |
| CCOCCn1c(NC2CCN(CCc3c(C)nc4ccccn4c3=O)CC2)nc2cccnc21 [Compound 46] | 0.01 |
| CCOCCn1c(CC2CCN(CCc3ccc(OC)cc3)CC2)nc2cccnc21 [Compound 59] | 0.02 |
| CCOCCn1c(NC2CCN(CCCC(C)=O)CC2)nc2cccnc21 [Compound 61] | 0.04 |
| CCOCCn1c(CC2CCN(CCc3c(C)nc4ccccn4c3=O)CC2)nc2cccnc21 [Compound 62] | 0.04 |
| CCOCCn1c(NC2CCN(CCCOc3ccc(F)cc3)CC2)nc2cccnc21 [Compound 63] | 0.04 |
| CCOCCn1c(NC2CCN(CCc3c(C)nc4sccn4c3=O)CC2)nc2cccnc21 [Compound 64] | 0.02 |
| CCOCCn1c(NC2CCN(CCCC(=O)c3ccc(F)cc3)CC2)nc2cccnc21 [Compound 65] | 0.02 |
| CCOCCn1c(NC2CCN(CCc3scnc3C)CC2)nc2cccnc21 [Compound 67] | 0.02 |
| CCOCCn1c(NC2CCN(CCn3c(=O)[nH]c4ccccc4c3=O)CC2)nc2cccnc21 [Compound 68] | 0.04 |
| CCOCCn1c(NC2CCN(CCc3c(C)nc4n(c3=O)CCCC4)CC2)nc2cccnc21 [Compound 70] | 0.04 |
| CCOCCn1c(CC2CCN(CCn3c(=O)[nH]c4ccccc43)CC2)nc2cccnc21 [Compound 80] | 0.02 |
| CCOCCn1c(NC2CCN(CCc3cc4ccccc4oc3=O)CC2)nc2cccnc21 [Compound 82] | 0.04 |
| CCOCCn1c(NC2CCN(CCSc3ccccc3)CC2)nc2cccnc21 [Compound 100, 3-(2-ethoxyethyl)-N-[1-[2-(phenylthio)ethyl]-4-piperidinyl]-3H-imidazo [4,5-b]-pyridin-2-amine] | 0.04 |
| CCOCCn1c(NC2CCN(C)CC2)nc2cccnc21 [Compound 108, 3-(2-ethoxyethyl)-N-(1-methyl-4-piperidinyl)-3H-imidazo[4,5-b]pyridin-2-amine] | 0.04 |
| CCOCCn1c(NC2CCN(CC)CC2)nc2cccnc21 [Compound 115] | 0.04 |
| CCOCCn1c(CC2CCN(C)CC2)nc2cccnc21 [Compound 126] | 0.04 |
| CCOCCn1c(CC2CCN(CCNc3ncccn3)CC2)nc2cccnc21 [Compound 131, N-[2-[4-[[3-(2-ethoxyethyl)-3H-imidazo[4,5-b]pyridin-2-yl]methyl]-1-piperidinyl]ethyl]-2-pyrimidinamine] | 0.02 |
| CCOCCn1c(NC2CCN(CCNc3ncccn3)CC2)nc2cccnc21 [Compound 132, 3-(2-ethoxyethyl)-N-[1-[2-(2-pyrimidinylamino)ethyl]-4-piperidinyl]-3H-imidazo[4,5-b]pyridin-2-amine] | 0.01 |
| CCOCCn1c(NC2CCN(CCOc3ncccn3)CC2)nc2cccnc21 [Compound 133, 3-(2-ethoxyethyl)-N-[1-[2-(2-pyrimidinyloxy)ethyl]-4-piperidinyl]-3H-imidazo-[4,5-b]pyridin-2-amine] | 0.02 |
| CCOCCn1c(CC2CCN(CCOc3ncccn3)CC2)nc2cccnc21 [Compound 134, 3-(2-ethoxyethyl)-2-[[1-[2-(2-pyrimidinyloxy)ethyl]4-piperidinyl]methyl]-3H-imidazo-[4,5-b]pyridine] | 0.005 |
| CCOCCn1c(NC2CCN(CCNc3nc4cnccc4[nH]3)CC2)nc2cccnc21 [Compound 141, 3-(2-ethoxyethyl)-N-[1-[2-[(1H-imidazo[4,5-c]pyridin-2-yl)amino]ethyl]-4-piperidinyl]-3H-imidazo[4,5-b]pyridin-2-amine] | 0.02 |
| CCOCCn1c(NC2CCN(CCNC(=O)c3ccoc3)CC2)nc2cccnc21 [Compound 142, N-[2-[4-[[3-(2-ethoxyethyl)-3H-imidazo[4,5-b]pyridin-2-yl]amino]-1-piperidinyl]ethyl]-3-furancarboxamide] | 0.04 |
| CCOCCn1c(NC2CCN(CCNC(=O)c3cccn3C)CC2)nc2cccnc21 [Compound 143, N-[2-[4-[[3-(2-ethoxyethyl)-3H-imidazo[4,5-b]pyridin-2-yl]amino]-1-piperidinyl]ethyl]-1-methyl-1H-pyrrole-2-carboxamide] | 0.02 |
| CCOCCn1c(CC2CCN(CCNC(=O)c3nccs3)CC2)nc2cccnc21 [Compound 144, N-[2-[4-[[3-(2-ethoxyetyyl)-3H-imidazo[4,5-b]pyridin-2-yl]methyl]-1-piperidinyl]ethyl]-2-thiazolecarboxamide] | 0.02 |
| CCOCCn1c(NC2CCN(CCc3ccccn3)CC2)nc2cccnc21 [Compound 151, 3-(2-ethoxyethyl)-N-[1-[2-(2-pyridinyl)ethyl]-4-piperidinyl]-3H-imidazo-[4,5-b]pyridin-2-amine] | 0.02 |
| CCOCCn1c(CC2CCN(CCc3ccccn3)CC2)nc2cccnc21 [Compound 152, 3-(2-ethoxyethyl)-2-[[1-[2-(2-pyridinyl)ethyl]-4-piperidinyl]methyl]-3H-imidazo-[4,5-b]pyridine] | 0.005 |
